Reference: ChEMBL document CHEMBL2150993, “Substituted thiazoles VII. Synthesis and antitumor activity of certain 2-(substituted amino)-4-phenyl-1,3-thiazole analogs” (2012)

Tests used:
Assay type in all cases: functional
[1] = Antiproliferative activity against human ovarian cancer cells after 48 hrs by cell counting analysis; details: Cancer cell lines
[2] = Antiproliferative activity against human CNS cancer cells after 48 hrs by cell counting analysis; details: Cancer cell lines
[3] = Antiproliferative activity against human non-small cell lung cancer cells after 48 hrs by cell counting analysis; details: Cancer cell lines
[4] = Antiproliferative activity against human melanoma cells after 48 hrs by cell counting analysis
[5] = Antiproliferative activity against human prostate cancer cells after 48 hrs by cell counting analysis; details: Cancer cell lines
[6] = Antiproliferative activity against human leukemia cells after 48 hrs by cell counting analysis
[7] = Antiproliferative activity against human colon cancer cells after 48 hrs by cell counting analysis; details: Cancer cell lines
[8] = Antiproliferative activity against human renal cancer cells after 48 hrs by cell counting analysis; details: Cancer cell lines
[9] = Antiproliferative activity against human breast cancer cells after 48 hrs by cell counting analysis; details: Cancer cell lines
HCT-15 = assay: Growth inhibition of human HCT15 cells after 48 hrs by cell counting analysis; details: at 10 µM
SK-MEL-2 = assay: Growth inhibition of human SK-MEL-2 cells after 48 hrs by cell counting analysis; details: at 10 µM
CAKI-1 = assay: Growth inhibition of human Caki1 cells after 48 hrs by cell counting analysis; details: at 10 µM
SNB-19 = assay: Growth inhibition of human SNB19 cells after 48 hrs by cell counting analysis; details: at 10 µM
[10] = Growth inhibition of human NCI-322M cells after 48 hrs by cell counting analysis; details: at 10 µM
Malme-3M = assay: Growth inhibition of human MALME-3M cells after 48 hrs by cell counting analysis; details: at 10 µM
MDA-MB-468 = assay: Growth inhibition of human MDA-MB-468 cells after 48 hrs by cell counting analysis; details: at 10 µM
SW-620 = assay: Growth inhibition of human SW620 cells after 48 hrs by cell counting analysis; details: at 10 µM
MCF7 = assay: Growth inhibition of human MCF7 cells after 48 hrs by cell counting analysis; details: at 10 µM
OVCAR-3 = assay: Growth inhibition of human OVCAR3 cells after 48 hrs by cell counting analysis; details: at 10 µM
HOP-62 = assay: Growth inhibition of human HOP62 cells after 48 hrs by cell counting analysis; details: at 10 µM
PC-3 = assay: Growth inhibition of human PC3 cells after 48 hrs by cell counting analysis; details: at 10 µM
SK-MEL-28 = assay: Growth inhibition of human SK-MEL-28 cells after 48 hrs by cell counting analysis; details: at 10 µM
RPMI-8226 = assay: Growth inhibition of human RPMI8226 cells after 48 hrs by cell counting analysis; details: at 10 µM
OVCAR-4 = assay: Growth inhibition of human OVCAR4 cells after 48 hrs by cell counting analysis; details: at 10 µM
SK-MEL-5 = assay: Growth inhibition of human SK-MEL-5 cells after 48 hrs by cell counting analysis; details: at 10 µM
SN12C = assay: Growth inhibition of human SN12C cells after 48 hrs by cell counting analysis; details: at 10 µM
UO-31 = assay: Growth inhibition of human UO31 cells after 48 hrs by cell counting analysis; details: at 10 µM
OVCAR-5 = assay: Growth inhibition of human OVCAR5 cells after 48 hrs by cell counting analysis; details: at 10 µM
K562 = assay: Growth inhibition of human K562 cells after 48 hrs by cell counting analysis; details: at 10 µM
HT-29 = assay: Growth inhibition of human HT-29 cells after 48 hrs by cell counting analysis; details: at 10 µM
LOX IMVI = assay: Growth inhibition of human LOXIMVI cells after 48 hrs by cell counting analysis; details: at 10 µM
OVCAR-8 = assay: Growth inhibition of human OVCAR8 cells after 48 hrs by cell counting analysis; details: at 10 µM
HOP-92 = assay: Growth inhibition of human HOP92 cells after 48 hrs by cell counting analysis; details: at 10 µM
TK-10 = assay: Growth inhibition of human TK10 cells after 48 hrs by cell counting analysis; details: at 10 µM
MOLT-4 = assay: Growth inhibition of human MOLT4 cells after 48 hrs by cell counting analysis; details: at 10 µM
SF-268 = assay: Growth inhibition of human SF268 cells after 48 hrs by cell counting analysis; details: at 10 µM
[11] = Growth inhibition of human NCI-ADR-RES cells after 48 hrs by cell counting analysis; details: at 10 µM
SR = assay: Growth inhibition of human SR cells after 48 hrs by cell counting analysis; details: at 10 µM
M14 = assay: Growth inhibition of human M14 cells after 48 hrs by cell counting analysis; details: at 10 µM
NCI-H522 = assay: Growth inhibition of human NCI-H522 cells after 48 hrs by cell counting analysis; details: at 10 µM
SF-539 = assay: Growth inhibition of human SF539 cells after 48 hrs by cell counting analysis; details: at 10 µM
NCI-H226 = assay: Growth inhibition of human NCI-H226 cells after 48 hrs by cell counting analysis; details: at 10 µM
IGROV-1 = assay: Growth inhibition of human IGROV1 cells after 48 hrs by cell counting analysis; details: at 10 µM
MDA-MB-435 = assay: Growth inhibition of human MDA-MB-435 cells after 48 hrs by cell counting analysis; details: at 10 µM
MDA-MB-231 = assay: Growth inhibition of human MDA-MB-231 cells after 48 hrs by cell counting analysis; details: at 10 µM
UACC-257 = assay: Growth inhibition of human UACC257 cells after 48 hrs by cell counting analysis; details: at 10 µM
CCRF-CEM = assay: Growth inhibition of human CCRF-CEM cells after 48 hrs by cell counting analysis; details: at 10 µM
KM12 = assay: Growth inhibition of human KM12 cells after 48 hrs by cell counting analysis; details: at 10 µM
HCT-116 = assay: Growth inhibition of human HCT116 cells after 48 hrs by cell counting analysis; details: at 10 µM
UACC-62 = assay: Growth inhibition of human UACC62 cells after 48 hrs by cell counting analysis; details: at 10 µM
A549 = assay: Growth inhibition of human A549 cells after 48 hrs by cell counting analysis; details: at 10 µM
HL-60 = assay: Growth inhibition of human HL60 cells after 48 hrs by cell counting analysis; details: at 10 µM
EKVX = assay: Growth inhibition of human EKVX cells after 48 hrs by cell counting analysis; details: at 10 µM
ACHN = assay: Growth inhibition of human ACHN cells after 48 hrs by cell counting analysis; details: at 10 µM
SF-295 = assay: Growth inhibition of human SF295 cells after 48 hrs by cell counting analysis; details: at 10 µM
SNB-75 = assay: Growth inhibition of human SNB75 cells after 48 hrs by cell counting analysis; details: at 10 µM
T47D = assay: Growth inhibition of human T47D cells after 48 hrs by cell counting analysis; details: at 10 µM
NCI-H23 = assay: Growth inhibition of human NCI-H23 cells after 48 hrs by cell counting analysis; details: at 10 µM
U-251 = assay: Growth inhibition of human U251 cells after 48 hrs by cell counting analysis; details: at 10 µM
HCC 2998 = assay: Growth inhibition of human HCC2998 cells after 48 hrs by cell counting analysis; details: at 10 µM
RXF 393 = assay: Growth inhibition of human RXF393 cells after 48 hrs by cell counting analysis; details: at 10 µM
BT-549 = assay: Growth inhibition of human BT549 cells after 48 hrs by cell counting analysis; details: at 10 µM
SK-OV-3 = assay: Growth inhibition of human SKOV3 cells after 48 hrs by cell counting analysis; details: at 10 µM
[12] = read-out: LC50 (the source's name)

SMILES: O=c1[nH]cc(F)c(=O)[nH]1 [FLUOROURACIL]
- GI50 [1]: 61.4 µM
- TGI [1]: > 100 µM
- CC50 [1, 12]: > 100 µM
- TGI [2]: > 100 µM
- CC50 [2, 12]: > 100 µM
- GI50 [3]: > 100 µM
- TGI [3]: > 100 µM
- CC50 [3, 12]: > 100 µM
- GI50 [4]: 70.6 µM
- TGI [4]: > 100 µM
- CC50 [4, 12]: > 100 µM
- GI50 [5]: 22.7 µM
- TGI [5]: > 100 µM
- CC50 [5, 12]: > 100 µM
- TGI [6]: > 100 µM
- CC50 [6, 12]: > 100 µM
- GI50 [7]: 8.4 µM
- TGI [7]: > 100 µM
- CC50 [7, 12]: > 100 µM
- GI50 [8]: 45.6 µM
- TGI [8]: > 100 µM
- CC50 [8, 12]: > 100 µM
- GI50 [9]: 76.4 µM
- TGI [9]: > 100 µM
- CC50 [9, 12]: > 100 µM

SMILES: CN1CCN(CCC(=O)Nc2nc(-c3ccc(Cl)cc3)cs2)CC1
- growth inhibition (GI) (HCT-15): 18.1%
- growth inhibition (GI) (SK-MEL-2): <10%
- growth inhibition (GI) (CAKI-1): 24.2%
- growth inhibition (GI) (SNB-19): 19.7%
- growth inhibition (GI) [10]: <10%
- growth inhibition (GI) (Malme-3M): 15.4%
- growth inhibition (GI) (MDA-MB-468): 62.8%
- growth inhibition (GI) (SW-620): <10%
- growth inhibition (GI) (MCF7): 28%
- growth inhibition (GI) (OVCAR-3): <10%
- growth inhibition (GI) (HOP-62): 19.7%
- growth inhibition (GI) (PC-3): 15.3%
- growth inhibition (GI) (SK-MEL-28): <10%
- growth inhibition (GI) (RPMI-8226): 17.6%
- growth inhibition (GI) (OVCAR-4): <10%
- growth inhibition (GI) (SK-MEL-5): 46.1%
- growth inhibition (GI) (SN12C): 32.9%
- growth inhibition (GI) (UO-31): 48.6%
- growth inhibition (GI) (OVCAR-5): <10%
- growth inhibition (GI) (K562): 22.4%
- growth inhibition (GI) (HT-29): 23.8%
- growth inhibition (GI) (LOX IMVI): 12.8%
- growth inhibition (GI) (OVCAR-8): 15.6%
- growth inhibition (GI) (HOP-92): 42.2%
- growth inhibition (GI) (TK-10): 20.2%
- growth inhibition (GI) (MOLT-4): 51.8%
- growth inhibition (GI) (SF-268): 14.2%
- growth inhibition (GI) [11]: 21.9%
- growth inhibition (GI) (SR): <10%
- growth inhibition (GI) (M14): 15.2%
- growth inhibition (GI) (NCI-H522): 31.1%
- growth inhibition (GI) (SF-539): 14.8%
- growth inhibition (GI) (NCI-H226): 28%
- growth inhibition (GI) (IGROV-1): 18.4%
- growth inhibition (GI) (MDA-MB-435): 15.4%
- growth inhibition (GI) (MDA-MB-231): 25.6%
- growth inhibition (GI) (UACC-257): <10%
- growth inhibition (GI) (CCRF-CEM): 18.3%
- growth inhibition (GI) (KM12): <10%
- growth inhibition (GI) (HCT-116): 13.3%
- growth inhibition (GI) (UACC-62): 15%
- growth inhibition (GI) (A549): <10%
- growth inhibition (GI) (HL-60): 20.6%
- growth inhibition (GI) (EKVX): 11.9%
- growth inhibition (GI) (ACHN): <10%
- growth inhibition (GI) (SF-295): <10%
- growth inhibition (GI) (SNB-75): 26.8%
- growth inhibition (GI) (T47D): 28.8%
- growth inhibition (GI) (NCI-H23): 11.2%
- growth inhibition (GI) (U-251): 16.5%
- growth inhibition (GI) (HCC 2998): 13.3%
- growth inhibition (GI) (RXF 393): 47.4%
- growth inhibition (GI) (BT-549): 29.1%
- growth inhibition (GI) (SK-OV-3): <10%
